What was measured:
[1] = molecular target: T1, Human pyruvate kinase R (PKR) (Homo sapiens, UniProt P30613); test: Biochemical assay for activation of pyruvate kinase R (Kinase-Glo luminescence, ATP generation); conditions: for AC50: 0.1 nM PKR, 2 mM FBP, 0.3 mM ADP, 0.1 mM PEP; for PKR % activation: maximal activation level relative to the activation level achieved by AG-348 @ 10 μM
T1 construct: Human pyruvate kinase R (PKR), residues 14-574; 6x-His (N, cleaved yes); 8x-Arg (N, cleaved yes); SUMO (N, cleaved yes); host or cells: E. coli
T1 sequence (P30613 14-574): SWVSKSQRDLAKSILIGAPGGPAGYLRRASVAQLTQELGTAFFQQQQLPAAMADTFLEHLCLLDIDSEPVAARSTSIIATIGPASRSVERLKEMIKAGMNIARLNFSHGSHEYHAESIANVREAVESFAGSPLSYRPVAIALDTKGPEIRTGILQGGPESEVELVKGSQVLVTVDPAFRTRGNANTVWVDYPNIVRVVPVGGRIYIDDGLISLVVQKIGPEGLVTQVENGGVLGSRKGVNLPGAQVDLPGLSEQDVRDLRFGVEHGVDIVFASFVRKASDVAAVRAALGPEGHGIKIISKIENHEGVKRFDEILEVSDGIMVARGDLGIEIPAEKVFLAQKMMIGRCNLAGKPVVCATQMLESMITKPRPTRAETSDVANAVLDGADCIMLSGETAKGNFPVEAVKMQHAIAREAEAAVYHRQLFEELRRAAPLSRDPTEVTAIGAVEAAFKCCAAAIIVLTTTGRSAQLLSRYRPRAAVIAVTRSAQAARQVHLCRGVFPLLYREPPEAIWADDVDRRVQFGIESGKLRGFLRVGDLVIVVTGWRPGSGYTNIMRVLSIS
Procedure, shortened: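 E. coli-expressed human PKR, freed of its His-Arg-SUMO tag and purified by anion exchange and size exclusion, was tested for activation. Read-out was luminescent measurement of ATP generation with Kinase-Glo reagent.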

[2] = molecular target: T2, Pyruvate kinase M2 (PKM2) in H1299 cells (Homo sapiens, UniProt P14618); test: Cell based assay for activation of pyruvate kinase M2 in lung carcinoma cell line (NADH/LDH coupled assay on cell lysate); conditions: PKM2 cellular assay; for AC50: H1299 cells, 90 minutes with compound; for PKM2 % activation: maximal activation level relative to the activation level achieved by AG-348 @ 10 μM
T2 construct: endogenous in cells; host or cells: H1299
T2 sequence (P14618 2-531 limits assumed): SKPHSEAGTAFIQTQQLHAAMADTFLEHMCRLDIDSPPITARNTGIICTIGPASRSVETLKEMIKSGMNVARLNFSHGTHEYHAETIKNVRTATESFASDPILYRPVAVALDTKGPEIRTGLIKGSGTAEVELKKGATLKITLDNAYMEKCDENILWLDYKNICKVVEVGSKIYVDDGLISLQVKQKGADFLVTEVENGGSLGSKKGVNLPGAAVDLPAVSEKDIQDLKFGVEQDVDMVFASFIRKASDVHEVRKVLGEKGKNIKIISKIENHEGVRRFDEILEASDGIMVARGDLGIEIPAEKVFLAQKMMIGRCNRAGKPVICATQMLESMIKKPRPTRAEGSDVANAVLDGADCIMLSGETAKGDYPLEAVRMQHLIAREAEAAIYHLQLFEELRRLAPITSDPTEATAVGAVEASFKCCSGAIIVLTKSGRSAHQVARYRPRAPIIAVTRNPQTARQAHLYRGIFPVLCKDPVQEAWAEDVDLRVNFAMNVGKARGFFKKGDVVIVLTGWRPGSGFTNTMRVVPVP
Experimental: Cell Based Assay for Activation of Pyruvate Kinase M2 in Lung Carcinoma Cell Line
H1299 cells were seeded in 96-well plates at 2,000 cells/well (100 uL). Treated plates were incubated overnight at 37° C. with 5% CO2. Compounds were diluted in complete media and added to cells in the presence of 1% DMSO. Cells were incubated with compound for 90 minutes at 37° C. and 5% CO2 before washing three times with PBS to remove residual compound and then lysed in lysis buffer (Cell Signaling). […] PKM2 activity was measured at steady state using a coupled enzyme activation system based on NADH consumption. PKM2 produces pyruvate and the coupled system uses lactate dehydrogenase (LDH) to reduce pyruvate to lactate with the concomitant oxidation of NADH to NAD^+. Conversion of NADH to NAD^+ was monitored using a SPECTROstar Nano plate reader (BMG Labtech) at a wavelength of 340 nm and subtraction of background absorbance measured at 750 nm. The change in NADH absorbance after PEP addition was monitored and slope obtained by subtracting baseline at 750 nm followed by least squares fitting to a simple linear regression model. A 10-point curve was generated to calculate the AC50 values by fitting the rates of NADH consumption against increasing concentration of compound.

SMILES	AC50 [1] [nM]	AC50 [2] [nM]	PKR % activation [1] [%]	PKM2 % activation [2] [%]
C[C@@H](O)[C@H](C(=O)N1Cc2cn(S(=O)(=O)c3ccc4ncsc4c3)nc2C1)c1ccccc1 (single isomer, unassigned) [Compound 3]	44	45	104	101
CC(O)C(C(=O)N1Cc2cn(S(=O)(=O)c3ccc4ncsc4c3)nc2C1)c1ccccc1 (single isomer, unassigned) [Compound 5]	82	38	–	–
O=C(N1Cc2cn(S(=O)(=O)c3ccc4ncsc4c3)nc2C1)[C@]1(c2ccccn2)CCOC1 (single isomer, unassigned) [Compound 20, 6-({5-[(3S)-3-(pyridin-2-yl)oxolane-3-carbonyl]-2H,4H,5H,6H-pyrrolo[3,4-c]pyrazol-2-yl}sulfonyl)-1,3-benzothiazole or 6-({5-[(3R)-3-(pyridin-2-yl)oxolane-3-carbonyl]-2H,4H,5H,6H-pyrrolo[3,4-c]pyrazol-2-yl}sulfonyl)-1,3-benzothiazole]	44	14	113	60
O=C([C@@H](CO)c1ccccc1)N1Cc2cn(S(=O)(=O)c3ccc4c(c3)OCCO4)nc2C1 (single isomer, unassigned) [Compound 25, (2R)-1-[2-(2,3-dihydro-1,4-benzodioxine-6-sulfonyl)-2H,4H,5H,6H-pyrrolo[3,4-c]pyrazol-5-yl]-3-hydroxy-2-phenylpropan-1-one or (2S)-1-[2-(2,3-dihydro-1,4-benzodioxine-6-sulfonyl)-2H,4H,5H,6H-pyrrolo[3,4-c]pyrazol-5-yl]-3-hydroxy-2-phenylpropan-1-one]	19	31	44	42
Cc1cccc([C@@]2(C(=O)N3Cc4cn(S(=O)(=O)c5ccc6ncsc6c5)nc4C3)CCOC2)n1 (single isomer, unassigned) [Compound 35, 6-({5-[(3S)-3-(6-methylpyridin-2-yl)oxolane-3-carbonyl]-2H,4H,5H,6H-pyrrolo[3,4-c]pyrazol-2-yl}sulfonyl)-1,3-benzothiazole or 6-({5-[(3R)-3-(6-methylpyridin-2-yl)oxolane-3-carbonyl]-2H,4H,5H,6H-pyrrolo[3,4-c]pyrazol-2-yl}sulfonyl)-1,3-benzothiazole]	62	93	115	89
N[C@@H](C(=O)N1Cc2cn(S(=O)(=O)c3ccc4ncsc4c3)nc2C1)c1ccccc1F [Compound 17, (2R)-2-amino-1-[2-(1,3-benzothiazole-6-sulfonyl)-2H,4H,5H,6H-pyrrolo[3,4-c]pyrazol-5-yl]-2-(2-fluorophenyl)ethan-1-one]	24	23	–	–
C[C@@H](O)[C@H](C(=O)N1Cc2cn(S(=O)(=O)c3ccc4c(c3)NCCO4)nc2C1)c1ccccc1 [Compound 23]	56	61	95	116
C[C@@H](O)[C@H](C(=O)N1Cc2cn(S(=O)(=O)c3ccc4c(c3)NCCO4)nc2C1)c1ccccc1 [Compound 24]	78	59	65	63
Cc1cccc([C@@H](N)C(=O)N2Cc3cn(S(=O)(=O)c4ccc5ncsc5c4)nc3C2)c1 [Compound 37, (2R)-2-amino-1-[2-(1,3-benzothiazole-6-sulfonyl)-2H,4H,5H,6H-pyrrolo[3,4-c]pyrazol-5-yl]-2-(3-methylphenyl)ethan-1-one]	21	17	–	–
O=C(N1Cc2cn(S(=O)(=O)c3ccc4ncsc4c3)nc2C1)C1(c2ccccc2)COC1 [Compound 40, 6-{[5-(3-phenyloxetane-3-carbonyl)-2H,4H,5H,6H-pyrrolo[3,4-c]pyrazol-2-yl]sulfonyl}-1,3-benzothiazole]	60	31	–	–

Continued, in another order:

AC50 [1] [nM]	AC50 [2] [nM]	SMILES	PKR % activation [1] [%]	PKM2 % activation [2] [%]
72	147	NC(C(=O)N1Cc2cn(S(=O)(=O)c3ccc4ncsc4c3)nc2C1)c1cccc(C(F)(F)F)c1 (racemic) [Compound 26, 2-amino-1-[2-(1,3-benzothiazole-6-sulfonyl)-2H,4H,5H,6H-pyrrolo[3,4-c]pyrazol-5-yl]-2-[3-(trifluoromethyl)phenyl]ethan-1-one]	–	–
41	53	Cc1cc(C(N)C(=O)N2Cc3cn(S(=O)(=O)c4ccc5ncsc5c4)nc3C2)ccc1F (racemic) [Compound 39, 2-amino-1-[2-(1,3-benzothiazole-6-sulfonyl)-2H,4H,5H,6H-pyrrolo[3,4-c]pyrazol-5-yl]-2-(4-fluoro-3-methylphenyl)ethan-1-one]	–	–
28	33	O=C([C@@H](CO)c1ccccc1)N1Cc2cn(S(=O)(=O)c3ccc4ncsc4c3)nc2C1 (single isomer, unassigned) [Compound 1, (2R)-1-[2-(1,3-benzothiazole-6-sulfonyl)-2H,4H,5H,6H-pyrrolo[3,4-c]pyrazol-5-yl]-3-hydroxy-2-phenylpropan-1-one or (2S)-1-[2-(1,3-benzothiazole-6-sulfonyl)-2H,4H,5H,6H-pyrrolo[3,4-c]pyrazol-5-yl]-3-hydroxy-2-phenylpropan-1-one]	82	133
76	22	O=C([C@@H](CO)c1ccccc1)N1Cc2cn(S(=O)(=O)c3ccc(OC(F)F)cc3)nc2C1 (single isomer, unassigned) [Compound 7, (2R)-1-{2-[4-(difluoromethoxy)benzenesulfonyl]-2H,4H,5H,6H-pyrrolo[3,4-c]pyrazol-5-yl}-3-hydroxy-2-phenylpropan-1-one, or (2S)-1-{2-[4-(difluoromethoxy)benzenesulfonyl]-2H,4H,5H,6H-pyrrolo[3,4-c]pyrazol-5-yl}-3-hydroxy-2-phenylpropan-1-one]	137	116
50	33	O=C([C@@H](CO)c1ccccc1)N1Cc2cn(S(=O)(=O)c3ccc4c(c3)NCCO4)nc2C1 (single isomer, unassigned) [Compound 22, (2R)-1-[2-(3,4-dihydro-2H-1,4-benzoxazine-6-sulfonyl)-2H,4H,5H,6H-pyrrolo[3,4-c]pyrazol-5-yl]-3-hydroxy-2-phenylpropan-1-one or (2S)-1-[2-(3,4-dihydro-2H-1,4-benzoxazine-6-sulfonyl)-2H,4H,5H,6H-pyrrolo[3,4-c]pyrazol-5-yl]-3-hydroxy-2-phenylpropan-1-one]	99	79
41	23	O=S(=O)(c1ccc2c(c1)NCCO2)N1Cc2cn(S(=O)(=O)c3ccc4ncsc4c3)nc2C1 [Compound 12, 6-{[2-(1,3-benzothiazole-6-sulfonyl)-2H,4H,5H,6H-pyrrolo[3,4-c]pyrazol-5-yl]sulfonyl}-3,4-dihydro-2H-1,4-benzoxazine]	–	–
110	53	N[C@H](C(=O)N1Cc2cn(S(=O)(=O)c3ccc4ncsc4c3)nc2C1)c1ccccc1 [Compound 14, (2S)-2-amino-1[2-(1,3-benzothiazole-6-sulfonyl)-2H,4H,5H,6H-pyrrolo[3,4-c]pyrazol-5-yl]-2-phenylethan-1-one]	–	–
45	26	N[C@@H](C(=O)N1Cc2cn(S(=O)(=O)c3ccc4ncsc4c3)nc2C1)c1ccccc1 [Compound 15, (2R)-2-amino-1-[2-(1,3-benzothiazole-6-sulfonyl)-2H,4H,5H,6H-pyrrolo[3,4-c]pyrazol-5-yl]-2-phenylethan-1-one]	–	–
92	25	N[C@@H](C(=O)N1Cc2cn(S(=O)(=O)c3ccc(OC(F)F)cc3)nc2C1)c1cccc(F)c1 [Compound 29, (2R)-2-amino-1-{2-[4-(difluoromethoxy)benzenesulfonyl]-2H,4H,5H,6H-pyrrolo[3,4-c]pyrazol-5-yl}-2-(3-fluorophenyl)ethan-1-one]	–	–
38	91	N[C@@H](C(=O)N1Cc2cn(S(=O)(=O)c3ccc4ncsc4c3)nc2C1)c1cccc(F)c1 [Compound 32, (2R)-2-amino-1-[2-(1,3-benzothiazole-6-sulfonyl)-2H,4H,5H,6H-pyrrolo[3,4-c]pyrazol-5-yl]-2-(3-fluorophenyl)ethan-1-one]	–	–
17	16	O=C([C@H](O)c1ccccc1)N1Cc2cn(S(=O)(=O)c3ccc4ncsc4c3)nc2C1 [Compound 42, (2R)-1-[2-(1,3-benzothiazole-6-sulfonyl)-2H,4H,5H,6H-pyrrolo[3,4-c]pyrazol-5-yl]-2-hydroxy-2-phenylethan-1-one]	–	–
44	–	O=C([C@H](NCCO)c1ccccc1F)N1Cc2cn(S(=O)(=O)c3ccc4ncccc4c3)nc2C1 [Compound 106, (2R)-2-(2-fluorophenyl)-2-[(2-hydroxyethyl)amino]-1-[2-(quinoline-6-sulfonyl)-2H,4H,5H,6H-pyrrolo[3,4-c]pyrazol-5-yl]ethan-1-one]	–	–
